Each structure is given as a SMILES string.

The results in this text go back to patent US8835422B2, “Substituted imidazoheterocycle derivatives” (Cara Therapeutics, Inc., priority 2008, dated 2014).

Experiment [1] addresses T1, human CB2 receptor (hCB2) (Homo sapiens, UniProt P34972).
T1 construct: host or cells: CHO-K1
As to the kind of experiment: cAMP assay (LANCE TR-FRET) in CHO-K1 cells stably expressing hCB2. Type of experiment: cell-based. Here is the method: (§1) The ability of compounds to act as agonists or inverse agonists at human CB2 and CB1 receptors (hCB2, hCB1, respectively) and at the rat CB2 receptor (rCB2) was determined by measuring changes in intracellular cAMP levels. Chinese Hamster Ovary (CHO-K1) cell lines stably expressing hCB2 (Genebank: X74328) or hCB1 (Genebank: X54937) were purchased from Euroscreen (Gosselies, Belgium). The rat CB2 receptor was expressed from genomic DNA (provided by M. Abood, California Pacific Medical Center) in CHO-K1 cells from expression plasmid vector, pcDNA3.1.
(§2) Receptor mediated responses were determined by measuring changes in intracellular cAMP using LANCE cAMP detection kit (cat #AD0264, Perkin Elmer, Wellesley, Mass.) based on time-resolved fluorescence resonance energy transfer (TR-FRET).
(§3) On the day of the experiment, cells were spun at low speed for 5 min at room temperature. […] Cell clumps were removed by filtering through cell strainer 40 μm (BD Falcon, Discovery Labware, Bedford, Mass.) and diluted to 2×10^5 cells/mL. Antibody supplied with the LANCE cAMP immunoassay kit was then added according to the manufacturer's instructions. An aliquot of cells was taken for un-induced controls. […] Cells were then incubated for 30 min at room temperature prior to adding to Proxiplates containing test compounds (final DMSO concentration was less than 0.5%) with a Multidrop bulk dispenser, followed by a sixty minute incubation at room temperature. The response was stopped by addition of the detection mix supplied with the LANCE kit. The reagents were allowed to equilibrate for three hours prior to reading on an Envision multi-mode detector (Perkin-Elmer). TR-FRET was measured using a 330-380 nm excitation filter, a 665 nm emission filter, dichroic mirror 380 nm and Z=1 mm. Cyclic AMP concentrations in each well were back-calculated from a cAMP standard curve run concurrently during each assay. Each plate contained 16 wells of forskolin stimulated cells and 16 wells of forskolin plus CP55,940-treated cells. […] Concentrations of cAMP were expressed as a percent of the difference of these two groups of wells.
In general terms: Changes in cAMP serve as a functional read-out for many G protein-coupled receptors.

Experiment [2] has as its system acetic acid-induced writhing. Briefly: Inhibition of acetic acid-induced writhing in mice. Type of experiment: in vivo, Male ICR mice. Particulars: dose of 10 mg/kg, subcutaneous, 30 min before acetic acid; writhes over 15 min. From the text: 12: 525-562; Ramabadran and Bansinath (1986) Pharm. Res. 3: 263-270]. Intraperitoneal administration of dilute acetic acid solution causes a writhing behavior in mice. A writhe is defined as a contraction of the abdominal muscles accompanied by an extension of the forelimbs and elongation of the body. The number of writhes observed in the presence and absence of test compounds is counted to determine the analgesic activity of the compounds.
Male ICR mice, 20-40 grams in weight, were weighed and placed in individual observation chambers (usually a 4000 ml beaker) with a fine layer of rodent bedding at the bottom. To determine the activity and potency of test compounds, different doses of the compound solution or vehicle were injected subcutaneously in the back of the neck 30 minutes prior to administration of acetic acid solution. After administration of the compound or vehicle control, mice were returned to their individual observation chambers awaiting the intraperitoneal administration of acetic acid solution. Thirty minutes later, 10 ml/kg of a 0.6% (v/v) acetic acid solution was then injected into the right lower quadrant of the abdomen. Immediately after the injection, the mouse was returned to its observation chamber and the recording of the number of writhes is begun immediately. The number of writhes was counted over a 15-min period starting from the time of acetic acid injection. Raw data were analyzed using a one-way ANOVA followed by Dunnett's post-tests.
For dose-response analysis, raw data were converted to % maximum possible effect (% MPE) using the formula: % MPE=((Wc−Wv)/(0−Wv))×100, where Wc is the number of writhes in compound-treated mice and Wv is the mean number of writhes in vehicle-treated mice. The dose which elicited 50% attenuation of hypersensitivity (ED50) was determined using linear regression analysis. (Tallarida & Murray, 1987).
In general terms: In writhing tests, fewer writhes than in controls are read as antinociception.

Experiment [3] deals with human CB1 receptor (hCB1) (Homo sapiens, UniProt P21554). As to the kind of experiment: cAMP assay (LANCE TR-FRET) in CHO-K1 cells stably expressing hCB1. Type of experiment: cell-based. Here is the method:
as §1, §2, §3

Experiment [4] deals with CFA-induced thermal hyperalgesia. As to the kind of experiment: CFA model of acute inflammation: thermal hyperalgesia (paw withdrawal latency). Type of experiment: in vivo, Male Sprague-Dawley rats. Particulars: for Attenuation (sec.) of CFA-induced thermal hyperalgesia (mean PWL ± SEM): p.o., vehicle 4.3 ± 0.2, naive 10.3 ± 0.3. Here is the method:
The anti-hyperalgesic effects of test compounds in the Complete Freund's Adjuvant (CFA) model of inflammatory pain were examined as described below. Male Sprague-Dawley rats (Hsd:Sprague-Dawley®™SD®™, Harlan, Indianapolis, Ind.) weighing about 200 grams, were housed three per cage. Test compound and ibuprofen (Sigma, cat 11892) were each prepared in a mixture of 1:1:18 ethanol:cremophor EL:water. Groups of six animals were subjected to local inflammation induced by 0.1 mL CFA (Sigma-Aldrich, cat F5881, Mycobacterium tuberculosis 1 mg/ml) injected subcutaneously into the plantar surface of the left paw.
Assessment of thermal hyperalgesia: Paw withdrawal latencies (PWLs) in response to a noxious thermal stimulus (Model #37370, Ugo Basile, Cat #55370) were obtained before and 24 hours after intraplantar administration of CFA. Rats were placed in plexi-glass chambers (10×21×14 cm) on top of a glass platform (un-heated) and allowed to acclimate for approximately 15 min before testing. Each rat received 3 trials separated by approx. 3 min each and these scores were averaged to provide the final PWL. The mean and standard error of the mean (SEM) were determined for the injured paw in each treatment group. Significant reductions in PWLs (i.e., increased sensitivity to a noxious stimulus) were interpreted as the presence of thermal hyperalgesia. To avoid tissue damage, a cut-off latency of 20 seconds was employed. These behavioral assessments were carried-out under blinded conditions (i.e., compound preparation and animal dosing was performed by someone other than the person carrying out the behavioral assessments). Ibuprofen (100 mg/kg, p.o.) was used as the positive control. The mean and SEM were determined for the injured and normal paws for each treatment group. CFA produces a significant increase in sensitivity to noxious thermal stimuli as PWLs decreased from a pre-CFA baseline of 10.3±0.3 sec to a value of 4.3±0.2 sec (p≦0.05, paired t-test). […] Compound 1-10 at a dose of 3 mg/kg produced a significant increase in PWLs (p<0.01, Bonferroni post-test) that persisted for at least 4 hours post-dosing.

T1 sequence (P34972 whole entry): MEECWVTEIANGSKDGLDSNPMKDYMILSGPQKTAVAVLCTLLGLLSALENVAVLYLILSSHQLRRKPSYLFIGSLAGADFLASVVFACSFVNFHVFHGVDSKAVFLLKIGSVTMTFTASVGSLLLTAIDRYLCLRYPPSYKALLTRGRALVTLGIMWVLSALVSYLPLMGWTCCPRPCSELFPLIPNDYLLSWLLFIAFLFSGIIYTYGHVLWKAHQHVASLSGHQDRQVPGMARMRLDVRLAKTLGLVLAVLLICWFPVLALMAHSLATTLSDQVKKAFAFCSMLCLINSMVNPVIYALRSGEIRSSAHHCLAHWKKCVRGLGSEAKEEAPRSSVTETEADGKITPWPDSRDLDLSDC
Sequence of human CB1 receptor (hCB1) (P21554 whole entry): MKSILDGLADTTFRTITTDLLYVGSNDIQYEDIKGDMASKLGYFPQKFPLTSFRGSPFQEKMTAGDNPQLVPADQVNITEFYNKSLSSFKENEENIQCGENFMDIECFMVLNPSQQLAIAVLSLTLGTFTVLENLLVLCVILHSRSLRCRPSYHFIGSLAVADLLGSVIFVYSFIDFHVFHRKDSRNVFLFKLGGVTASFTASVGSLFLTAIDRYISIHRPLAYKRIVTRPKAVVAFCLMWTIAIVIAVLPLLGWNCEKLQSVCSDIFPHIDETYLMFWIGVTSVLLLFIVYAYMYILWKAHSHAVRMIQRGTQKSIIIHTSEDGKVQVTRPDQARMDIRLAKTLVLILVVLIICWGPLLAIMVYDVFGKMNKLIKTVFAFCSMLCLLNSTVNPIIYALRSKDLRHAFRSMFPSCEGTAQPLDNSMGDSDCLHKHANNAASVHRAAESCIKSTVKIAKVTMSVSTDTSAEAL

Usually EC50 stands for the concentration needed to bring the measured effect to its halfway point. A low value points to an effect from little substance. Take `CNC(=O)[C@@H](NC(=O)c1nc(-c2ccc(F)c(F)c2)n2c1CCCCC2)C(C)(C)C` [Compound 1-2, (S)-3-(3,4-difluorophenyl)-N-(3,3-dimethyl-1-(methylamino)-1-oxobutan-2-yl)-6,7,8,9-tetrahydro-5H-imidazo[1,5-a]azepine-1-carboxamide]: the EC50 in experiment [1] and in experiment [3] was 0.0001 to 0.01 µM throughout. Also, in experiment [2], the “% maximum possible effect (% MPE), writhing” value (“% maximum possible effect” for short) is on record as “greater than fifty”.

Turning to `CNC(=O)[C@@H](NC(=O)c1nc(-c2ccc(F)c(F)c2)n2c1COCCC2)C(C)(C)C` [Compound 1-10, (S)-3-(3,4-difluorophenyl)-N-(3,3-dimethyl-1-(methylamino)-1-oxobutan-2-yl)-5,6,7,9-tetrahydroimidazo[5,1-c][1,4]oxazepine-1-carboxamide], the EC50 in experiment [1] and in experiment [3] was 0.01 to 0.1 µM each time. Also, in experiment [4] (3 mg/kg p.o., p<0.01, Bonferroni post-test), the “Persistence of significant increase in PWLs post-dosing” value is “at least 4 hours”. Besides, the “Attenuation (sec.) of CFA-induced thermal hyperalgesia (mean PWL ± SEM)” value was 6.5 ± 0.5 s in experiment [4] (3 mg/kg, 1 hr) and 6.3 ± 0.3 s in experiment [4] (3 mg/kg, 4 hr). In addition, the “Reversal of CFA-induced thermal hyperalgesia” value in experiment [4] (oral (p.o.) administration) is “significant reversal”.

As to `CNC(=O)[C@@H](NC(=O)c1nc(-c2ccc(F)c(F)c2)n2c1CCOCC2)C(C)(C)C` [Compound 1-9, (S)-3-(3,4-difluorophenyl)-N-(3,3-dimethyl-1-(methyl-amino)-1-oxobutan-2-yl)-5,6,8,9-tetrahydroimidazo[1,5-d][1,4]oxazepine-1-carboxamide], the EC50 in experiment [1] was in the range of 0.0001 to 0.01 µM; in experiment [3], 0.01 to 0.1 µM. In addition, in experiment [2], the “% maximum possible effect” value is on record as “greater than fifty”.

Regarding `CC(C)Cc1ccc(C(C)C(=O)O)cc1` (centres unmarked) [Ibuprofen, reference compound], the “Attenuation (sec.) of CFA-induced thermal hyperalgesia (mean PWL ± SEM)” value in experiment [4] (100 mg/kg, 1 hr) was found to be 7.6 ± 0.7 s; in experiment [4] (100 mg/kg, 4 hr), 7.7 ± 0.6 s.

On to `CNC(=O)[C@@H](NC(=O)c1nc(-c2cc(F)ccc2F)n2c1CCCCC2)C(C)(C)C` [Compound 1-3, (S)-3-(2,5-difluorophenyl)-N-(3,3-dimethyl-1-(methyl-amino)-1-oxobutan-2-yl)-6,7,8,9-tetrahydro-5H-imidazo[1,5-a]azepine-1-carboxamide], for which the EC50 in experiment [1] and in experiment [3] was 0.0001 to 0.01 µM each time. Besides, in experiment [2], the “% maximum possible effect” value is reported as “greater than fifty”.

With `CNC(=O)[C@@H](NC(=O)c1nc(-c2ccccc2)n2c1CCCCC2)C(C)(C)C` [Compound 1-1, (S)—N-(3,3-dimethyl-1-(methylamino)-1-oxobutan-2-yl)-3-phenyl-6,7,8,9-tetrahydro-5H-imidazo[1,5-a]azepine-1-carboxamide], the 50% effective concentration (EC50) in experiment [1] lay within 0.0001 to 0.01 µM; in experiment [3], 0.01 to 0.1 µM. Also, the “% maximum possible effect” value in experiment [2] was “greater than fifty”.
